B1: modified rFnBD-D: rFnBD-D chemically modified with EDC (protein)
chain: GQNSGNQSFEEDTEEDKPKYEQGGNIVDIDFDSVPQIHGQNKGNQSFEEDTEKDKPKYEHGGNIIDIDFDSVPHIHGFNKHTEIIEEDTNKDKPSYQFGGHNSVDFEEDTLPKVSGQNEGQQTIEEDTTPPIVP
modifications: left off: small tags and cut ends
notes: rFnBD-D chemically modified with EDC
B2: native rFnBD-D: recombinant version of the S. aureus Fn-binding MSCRAMM repeat domain (protein)
chain: B1 chain
modifications: left off: small tags and cut ends

For the first assay, the system named is S. aureus.
Test: not given
The following applies: McGavin et al., 1991; cited from earlier work.
For QFGGHNSVDFEEDT [D320-33], the “inhibition of binding of Fn to S. aureus / Fn-binding function” value was “could not inhibit binding of Fn to S. aureus”.

Another assay relates to S. aureus strain Cowan binding to immobilized fibronectin. Put plainly: Inhibition of biotinylated S. aureus binding to immobilized fibronectin by synthetic peptides (ELISA). It is filed as cell-based, Staphylococcus aureus. Particulars: 250 μg peptide (FIG. 3B). The procedure:
FIG. 2A, FIG. 2B and FIG. 2C. Inhibition of S. aureus binding to immobilized fibronectin by wild-type and mutant D3 peptides 1 through 21 (Table 3). NP indicates the amount of adherent bacteria in the absence of inhibitor. FIG. 2A. Peptides tested at 5 μg/well. FIG. 2B. Peptides tested at 50 μg/well. FIG. 2C. Peptides tested at 250 μg/well.
FIG. 3A and FIG. 3B. FIG. 3A. Inhibition of S. aureus binding to immobilized fibronectin by wild-type peptides D1 and D2 and mutant derivatives. NP indicates the amount of adherent bacteria in the absence of inhibitor. All peptides were tested at 10 μg/well. FIG. 3B. Inhibition of S. aureus binding to immobilized fibronectin by wild-type peptides D1. D2 and DU and mutant derivatives. NP indicates the amount of adherent bacteria in the absence of inhibitor. All peptides were tested at 250 μg/well.
S. aureus strain Cowan was cultured under constant rotation for 15 h at 37° C. in brain heart infusion (BHI; Difco) broth. Bacteria were harvested by centrifugation, resuspended in a bicarbonate buffer (50 mM NaHCO3, pH 8.5) to a final density of 10^10 cells/ml determined by comparing the absorbance at 600 nm of the sample with a previously prepared standard curve relating A600 to cells counted in a Petroff Hausser chamber. Bacterial cells were labeled with biotin by the addition of 100 μl of 1% NHS-biotin/ml of bacterial suspension (Pierce, Rockford, Ill.) in N,N-dimethylformamide. The staphylococcal cells were incubated with the NHS-biotin for 2 h at room temperature with constant rotation. The biotinylation reaction was stopped by removing the supernatant after centrifugation of the bacterial cells. The bacteria were then washed three times in PBS to remove unincorporated biotin. The bacterial cell suspensions were then adjusted to 1×10^10 cells/ml and the cells were stored at 4° C. in PBS, pH 7.4. To prevent unbiotinylated bacteria from growing and to reduce background, sodium azide and 0.1% BSA were added.
A series of peptides, based on the D3 repeat of S. aureus FnBPA, were synthesized to contain a proline residue at each position throughout the entire sequence (i.e., proline scan; Table 3). The mutated peptides were initially tested for their ability to inhibit biotinylated S. aureus binding to immobilized fibronectin. Wells on a 96-well Immulon II plate were coated with […] of a 30 μg/ml solution of purified Fn, either for 2 hr at room temperature or overnight at 4° C. Wells were washed three times with 1× phosphate buffered saline (PBS)-0.05% Tween-80 and blocked for 1 hr with PBS containing 0.01% Tween-80 and 1% BSA. After 1 hr, wells were washed again with PBS containing 0.05% Tween-80. Synthetic peptides were diluted to 5 mg/ml concentration in 1×PBS and tested at a concentration of 5 (FIG. 2A), 50 (FIG. 2B), or 250 μg/well (FIG. 2C). A volume of […] of the synthetic peptide was added to each well, after 15–25 min, followed by […] of biotinylated S. aureus cells. The plates were incubated for one hour at room temperature with slight agitation on a shaker. After 1 hr the wells were washed with PBS-0.05% Tween-80 and then incubated 30 min in 1:5000 dilution of secondary antibody streptavidin alkaline phosphatase. After 30 min, wells were washed again and developed with diethanolamine containing p-nitrophenyl phosphate (PNPP; 1 mg/ml) for 30 min at room temperature. The reaction was monitored at 405 nm.
On to “ADVVEYEEDTNPPGGQVTTESNLVEFDEEST [DU-13P]”, for which the “inhibitory activity compared to the wild type peptides” value is listed as “virtually no inhibitory activity”.

Regarding “QNSGNQSFEEDTEEDKPKYEQPGNIVDIDFDSVPQIHG [D1–22P]”, the “inhibitory activity compared to the wild type peptides” value was “inhibitory activity was detected”.

Take “ADVVEYEEDTNPGPGQVTTESNLVEFDEEST [DU-14P]”: the “inhibitory activity compared to the wild type peptides” value is “inhibitory activity was detected”.

For the molecule “QNKGNQSFEEDTEKDKPKYEHPGNIIDIDFDSVPHIHG [D2–22P]”, the “inhibitory activity compared to the wild type peptides” value is on record as “virtually no inhibitory activity”.

The assay is the same for the next values; noted with them: FIG. 2C, peptides at 250 μg/well; proline scan of D3.
For the molecule KPSYQFGGHNSVDFEPDTLPK [compound 16], the “ability of mutant D3 peptides to inhibit S. aureus binding to Fn” value (“ability … to inhibit S. aureus binding to Fn” for short) is “enhanced S. aureus Fn binding ability”.

In the case of KPSYQFGPHNSVDFEEDTLPK [compound 8], the “ability … to inhibit S. aureus binding to Fn” value is recorded as “inhibitory activity of peptides increased”.

Regarding KPSYQFGGHNPVDFEEDTLPK [compound 11], the “ability … to inhibit S. aureus binding to Fn” value is on record as “inhibitory activity of peptides increased”.

Turning to KPPYQFGGHNSVDFEEDTLPK [compound 3], the “ability … to inhibit S. aureus binding to Fn” value is reported as “inhibitory activity of peptides increased”.

Regarding KPSYQFGGHNSVDFEEPTLPK [compound 17], the “ability … to inhibit S. aureus binding to Fn” value is given as “enhanced S. aureus Fn binding ability”.

Turning to KPSYQFGGHNSVDFEEDTPPK [compound 19], the “ability … to inhibit S. aureus binding to Fn” value is reported as “enhanced S. aureus Fn binding ability”.

On to KPSPQFGGHNSVDFEEDTLPK [compound 4], for which the “ability … to inhibit S. aureus binding to Fn” value is “decreased ability to inhibit S. aureus binding to Fn”.

Take KPSYQFPGHNSVDFEEDTLPK [compound 7]: the “ability … to inhibit S. aureus binding to Fn” value is “decreased ability to inhibit S. aureus binding to Fn”.

With KPSYQFGGHNSVDFEEDTLPP [compound 21], the “ability … to inhibit S. aureus binding to Fn” value was “enhanced S. aureus Fn binding ability”.

With KASYQFGGHNSVDFEEDTLPK [compound 2], the “ability … to inhibit S. aureus binding to Fn” value is “inhibitory activity of peptides increased”.

Consider PPSYQFGGHNSVDFEEDTLPK [compound 1], for which the “ability … to inhibit S. aureus binding to Fn” value is on record as “inhibitory activity of peptides increased”.

With KPSYQFGGHNSVDFEEDPLPK [compound 18], the “ability … to inhibit S. aureus binding to Fn” value is “enhanced S. aureus Fn binding ability”.

The assay is the same for the next values; noted with them: low concentration, 10 μg peptide (FIG. 3A).
As to “QNSGNQSFEEDTEEDKPKYEQPGNIVDIDFDSVPQIHG [D1–22P]”, the “inhibitory activity compared with control samples (no peptide)” value is listed as “no inhibitory activity”.

As to “QNKGNQSFEEDTEKDKPKYEHPGNIIDIDFDSVPHIHG [D2–22P]”, the “inhibitory activity compared with control samples (no peptide)” value was “no inhibitory activity”.

For a further assay, the system named is S. aureus. Put plainly: Inhibition of Fn binding to S. aureus (rFnBD-D, EDC-modified rFnBD-D, immune IgG). It is filed as cell-based, Staphylococcus aureus.
Conditions: not given
From the text:
Based on this observation, the inventors hypothesized that only Fn-binding MSCRAMMs that lack binding activity should lead to blocking antibodies. A recombinant version of the Fn-binding MSCRAMM rFnBD-D was chemically modified with EDC as previously described (McGavin et al., 1991) and tested for its ability to inhibit Fn binding to S. aureus. […] The chemically modified rFnBD-D was then used to immunize rabbits. […] With efficiencies of approximately 98%, chemical modification had the advantage of providing a quick and efficient method for probing entire classes of amino acids. However, an inherent disadvantage in this global approach is that the contribution to binding of individual amino acids was not detected.
Consider B1, for which the “inhibition of Fn binding to S. aureus” value is given as “no inhibitory activity”.

As to B2, the “inhibition of Fn binding to S. aureus” value is recorded as “inhibited Fn binding to S. aureus in a dose-dependent manner”.

The values above are taken from patent US7128912B2, “Fibronectin binding protein compositions and methods of use” (The Texas A&M University System, priority 1997, dated 2006).
